From ChEMBL document CHEMBL6134844, “Development of Next-Generation Antimalarial Acridones with Radical Cure Potential” (J Med Chem, 2025) come the findings set out here.

Series [1] relates to Plasmodium yoelii. Put plainly: In vivo antiplasmodial activity against asexual blood-stage (ABS) Plasmodium yoelii MRA-428 infected in 4-day suppression CF1 mouse model assessed as reduction in parasitemia by measuring cured mouse at 60 mg/kg, po single dose treated 24 hrs post infection. The format is functional, organism-based.
The conditions of series [2]: mouse, microsomes, 1 h.
A short description of series [3]: Tmax in male ICR-CD1 mouse plasma at 40 mg/kg, po. The format is ADME, organism-based.
Series [4] in a line: Mutagenicity in Salmonella typhimurium TA98 assessed as background reversion rate up to 10 uM with S-9 metabolic activation by AMES test. The settings on record: salmonella enterica subsp. enterica serovar typhimurium. The format is toxicity.
The subject of series [5] is Plasmodium falciparum. Kind of series: Synergistic antiplasmodial activity against multi-drug resistant Plasmodium falciparum Tm90-C2B assessed as fractional inhibitory concentration in presence of tafenoquine. The format is functional.
Series [6] is described as follows: AUClast in male ICR-CD1 mouse plasma at 40 mg/kg, po. The series is classed as ADME, organism-based.
In the next series the test system is Plasmodium cynomolgi. Put plainly: Antiplasmodial activity against schizont Plasmodium cynomolgi B strain infected in Macaca mulatta hepatocytes incubated with sporozoite containing salivary gland homogenate obtained from dissected Anopheles dirus mosquitoes (infected with Plasmodium cynomolgi B strain) treatment started on day 4 post infection and continued daily for 4 days into fresh changed media until day 8 assessed as Liver stage (LS) activity by measuring radical cure mode by immunofluorescent staining analysis. The series is classed as functional, organism-based. The settings on record: Hepatocyte.

The target in series [7] is Voltage-gated inwardly rectifying potassium channel KCNH2 (Homo sapiens, UniProt Q12809). Put plainly: Inhibition of hERG expressed in HEK293 cells by manual patch clamp assay. The format is toxicity, cell-based. (In general: Block of hERG is tested as a sign of cardiac risk.)
Chain of Voltage-gated inwardly rectifying potassium channel KCNH2 (Q12809 whole entry): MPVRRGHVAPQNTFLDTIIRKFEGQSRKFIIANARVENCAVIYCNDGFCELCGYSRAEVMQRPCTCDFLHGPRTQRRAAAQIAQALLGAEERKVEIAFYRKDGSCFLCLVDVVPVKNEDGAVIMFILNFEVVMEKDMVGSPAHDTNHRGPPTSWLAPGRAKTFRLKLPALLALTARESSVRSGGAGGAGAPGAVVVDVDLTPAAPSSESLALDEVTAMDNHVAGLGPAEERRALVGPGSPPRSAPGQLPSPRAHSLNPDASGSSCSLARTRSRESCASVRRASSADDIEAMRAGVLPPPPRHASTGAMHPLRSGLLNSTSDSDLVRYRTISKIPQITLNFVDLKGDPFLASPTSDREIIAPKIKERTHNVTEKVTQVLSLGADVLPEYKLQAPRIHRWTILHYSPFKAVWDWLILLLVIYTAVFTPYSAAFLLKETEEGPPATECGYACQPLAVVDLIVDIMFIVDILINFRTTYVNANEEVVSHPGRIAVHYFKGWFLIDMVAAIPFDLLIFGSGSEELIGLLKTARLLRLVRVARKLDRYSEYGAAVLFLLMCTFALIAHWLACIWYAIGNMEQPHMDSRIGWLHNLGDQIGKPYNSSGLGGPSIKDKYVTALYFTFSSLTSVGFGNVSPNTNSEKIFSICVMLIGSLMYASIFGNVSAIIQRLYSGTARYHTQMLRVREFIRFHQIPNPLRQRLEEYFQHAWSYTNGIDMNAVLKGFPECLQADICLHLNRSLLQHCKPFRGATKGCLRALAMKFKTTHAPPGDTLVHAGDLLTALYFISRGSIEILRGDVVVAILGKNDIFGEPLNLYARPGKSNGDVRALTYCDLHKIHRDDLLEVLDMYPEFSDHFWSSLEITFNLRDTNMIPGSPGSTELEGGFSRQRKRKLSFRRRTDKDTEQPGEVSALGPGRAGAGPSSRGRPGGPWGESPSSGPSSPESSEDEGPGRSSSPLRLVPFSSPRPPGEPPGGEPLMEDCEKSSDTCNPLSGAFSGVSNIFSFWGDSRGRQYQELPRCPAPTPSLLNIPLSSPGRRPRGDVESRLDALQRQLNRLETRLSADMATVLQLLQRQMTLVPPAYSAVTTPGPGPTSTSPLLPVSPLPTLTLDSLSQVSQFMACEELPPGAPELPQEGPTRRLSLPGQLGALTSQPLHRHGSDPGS
A short description of series [8]: Selectivity index, ratio of CC50 for Macaca mulatta hepatocytes to IC50 for antiplasmodial activity against hypnozoite Plasmodium cynomolgi B strain infected in Macaca mulatta hepatocytes incubated with sporozoite containing salivary gland homogenate obtained from dissected Anopheles dirus mosquitoes (infected with Plasmodium cynomolgi B strain) treatment started on day 4 post infection and continued daily for 4 days into fresh changed media until day 8 assessed as Liver stage (LS) activity by measuring radical cure mode by immunofluorescent staining analysis. The settings on record: rhesus monkey, read-out: Selectivity Index. The format is toxicity, cell-based.

Series [9] has as its system Plasmodium falciparum. Kind of series: Antiplasmodial activity against asexual blood-stage (ABS) ATV-resistant clinical isolate Plasmodium falciparum Tm90-C2B infected in human erythrocytes assessed as reduction in fluorescence measured after 72 hrs by Malaria SYBR Green I-based Fluorescence (MSF) assay. Particulars: Erythrocyte. The format is functional, organism-based.

Series [10] is described as follows: Toxicity in CF1 mouse infected with asexual blood-stage (ABS) Plasmodium yoelii MRA-428 assessed as hyperactivity at 0.3 to 30 mg/kg, po treated 24 hrs post infection measured after 4 days. The format is organism-based. The settings on record: in vivo, 96 h, dose 0.3-30 mg/kg, time 4 day.
The subject of series [11] is Plasmodium berghei. Kind of series: In vivo antiplasmodial activity against luciferase expressing liver stage Plasmodium berghei ANKA MRA-868 sporozoites infected in Albino C57BL/6 mouse model assessed as cured mouse at 40 mg/kg, po daily measured after 31 days. The series is classed as functional, organism-based. Particulars: time 31.0 day.
Series [12] is described as follows: Toxicity in CF1 mouse infected with asexual blood-stage (ABS) Plasmodium yoelii MRA-428 assessed as ruffled hair at 0.3 to 30 mg/kg, po treated 24 hrs post infection measured after 4 days. The series is classed as organism-based. The settings on record: in vivo, 96 h, dose 0.3-30 mg/kg, time 4 day.
Series [13] deals with Plasmodium falciparum. Put plainly: Ex vivo antiplasmodial activity against clinical isolate Plasmodium falciparum isolated from Ugandan measured after 72 hrs by growth inhibition assay. The series is classed as functional, organism-based.
The subject of series [14] is Plasmodium falciparum. Put plainly: Antiplasmodial activity against AART-resistant Plasmodium falciparum DR4 measured after 72 hrs by drug susceptibility test. The format is functional, organism-based. Particulars: DR4, 72 h.
The subject of series [15] is Plasmodium falciparum. Kind of series: Antiplasmodial activity against AART-resistant Plasmodium falciparum DR1 measured after 72 hrs by drug susceptibility test. The format is functional, organism-based. The settings on record: DR1, 72 h.
Series [16] concerns Plasmodium falciparum. Put plainly: Antiplasmodial activity against Plasmodium falciparum Dd2 measured after 72 hrs by drug susceptibility test. The series is classed as functional, organism-based. The settings on record: Dd2, 72 h.
The conditions of series [17]: mouse, microsomes, 1 h. This is another data set of the same source.
Series [18] is described as follows: AUClast in male ICR-CD1 mouse liver at 40 mg/kg, po. The format is ADME, organism-based.
Series [19] deals with Plasmodium berghei. Put plainly: In vivo antiplasmodial activity against luciferase expressing liver stage Plasmodium berghei ANKA MRA-868 sporozoites infected in Albino C57BL/6 mouse model assessed as protection at 10 mg/kg, po daily measured 24 to 72 hrs by real-time In Vivo Imaging System (IVIS). The series is classed as functional.
For series [20], the system named is Plasmodium falciparum. Kind of series: Synergistic antiplasmodial activity against pan-sensitive Plasmodium falciparum D6 assessed as fractional inhibitory concentration in presence of tafenoquine. The format is functional.
For series [21], the system named is Plasmodium yoelii. Kind of series: In vivo antiplasmodial activity against asexual blood-stage (ABS) Plasmodium yoelii MRA-428 infected in 4-day suppression CF1 mouse model assessed as reduction in parasitemia treated 24 hrs post infection daily measured on day 4. The series is classed as functional.
The subject of series [22] is Plasmodium yoelii. Put plainly: In vivo antiplasmodial activity against asexual blood-stage (ABS) Plasmodium yoelii MRA-428 infected in 4-day suppression CF1 mouse model assessed as reduction in parasitemia by measuring protection at 10 mg/kg, po treated 24 hrs post infection daily for 4 days relative to control. The series is classed as functional. Also on record: scale not given: the % may be the effect or the level left.

Series [23] is described as follows: AUCextrap in male ICR-CD1 mouse plasma at 40 mg/kg, po. The format is ADME, organism-based.
The nature of series [24]: Half life in male ICR-CD1 mouse plasma at 40 mg/kg, po. The format is ADME, organism-based.
Series [25] is described as follows: AUC(0 to infinity) in male ICR-CD1 mouse plasma at 40 mg/kg, po. The format is ADME, organism-based. Particulars: in vivo.
A short description of series [26]: Apparent oral clearance in male ICR-CD1 mouse plasma at 40 mg/kg, po. The series is classed as ADME, organism-based. Particulars: in vivo.

Active and inactive are the calls of the source. No cut-off for these calls is given here.

On to `O=c1c2c([nH]c3cc(Oc4ccc(OC(F)(F)F)cc4)ccc13)CCCC2`, for which, in the series on Plasmodium yoelii [1], the outcome was Active. For the same compound, the CLH in [2] amounted to 117 µL/min/mg. Further, the Tmax in series [3] came out at 1 h. Further, the Activity result in [4] was “Non-toxic”; in series [10], “Non-toxic”; in the series on Plasmodium berghei [11], “Active; Out Of 5 - 5 Mouse Cured”; in [12], “Non-toxic”; with Plasmodium berghei [19] (time 24-72 hrs), 100%. Besides, the results for the FIC in the series with Plasmodium falciparum [5] and in the series on Plasmodium falciparum [20] were 0.76 and 0.81, respectively. The exposure AUC(0-t) in series [6] amounted to 472 ng·h/mL; in series [18], 32900 ng·h/mL. In addition, the 50% inhibitory concentration (IC50) with Plasmodium cynomolgi was 380 nM; in [7], more than 10 µM; in the series on Plasmodium falciparum [9], 0.295 nM; with Plasmodium falciparum [13], 10.5 nM; in the series on Plasmodium falciparum [14], 5.35 nM; with Plasmodium falciparum [15] it was 5.26 nM. This compound displayed a half-inhibitory concentration (IC50) with Plasmodium falciparum [16] of 2.06 nM. Moreover, in series [8], the selectivity ratio at 96 h amounted to 1.11. Besides, the t1/2 in series [17] is given as 11.8 min.

In the case of `O=c1c2c([nH]c3cc(Oc4ccc(OC(F)(F)F)cc4)c(F)cc13)CCCC2`, in the series with Plasmodium yoelii [21], the median effective dose (ED50) worked out at 1.5 mg/kg. Moreover, in the series on Plasmodium yoelii [21], the ED90 amounted to 4.7 mg/kg. In addition, in the series with Plasmodium yoelii [1], the outcome was Active. The CLH in [2] amounted to 74.9 µL/min/mg. In addition, the Tmax in [3] was 1 h. In addition, the Activity result in series [4] was “Non-toxic”; in the series with Plasmodium yoelii [22] it was 100%; in [10], “Non-toxic”; in [12], “Non-toxic”; with Plasmodium berghei [19] (time lower 24.0 hrs, time upper […]), “Not active; Out Of 5 - 0 Mouse Cured”. Moreover, the exposure AUC(0-t) came to 167 ng·h/mL in [6] and 5470 ng·h/mL in series [18]. The concentration for half-maximal inhibition (IC50) turned out to be 2410 nM with Plasmodium cynomolgi and 0.384 nM in the series with Plasmodium falciparum [9]. In addition, the values for the AUC in series [23] and in [25] were 23.7% and 219 ng·h/mL, respectively. For the same compound, the selectivity ratio at 96 h in [8] came to 1.49. In [24], this compound showed a half-life of 233 min. Moreover, the apparent clearance (CL/F) in [26] turned out to be 87.98 mL/min/kg.

The term Tmax denotes the time from dosing to the highest level. Usually AUC(0-t) stands for exposure summed from dosing to a finite time, without extrapolation to infinity. What is called IC50 is the concentration that inhibits the measured activity by half. For orientation: ED50 means the midpoint of the dose-response relation. What is called half-life is the time in which the quantity being followed falls by half. What is called CL/F is clearance divided by bioavailability, as obtained after extravascular dosing.
